Experimental data taken from patent publication US20250152586A1, “PHARMACEUTICAL COMPOSITION FOR RELIEVING OR TREATING PAIN BY REGULATING CEREBELLAR GLIAL CELLS AND METHOD FOR RELIEVING OR TREATING PAIN” (Seoul National University R&DB Foundation, priority 2021, published 2025).
Counter-ions that a name gives are not always drawn.

Assays:
[1] = Basic motor function, ledge test and gait test; format: in vivo, mice; conditions: vs control
Experimental: To confirm whether basic behavioral patterns were affected when the activity of cerebellar glial cells was regulated, basic movements were measured by placing the mice in a chamber measuring 40 cm in length and width (FIG. 1D).
A ledge test was first performed to measure motor coordination. […] A score closer to 3 was determined to be normal, and a score closer to 0 was determined to be abnormal motor coordination. (FIG. 1E, ledge test).
A gait test was secondly performed to measure motor coordination. An experimenter measured the mouse's walking pattern without being observed. […] A score closer to 3 was determined to be normal, and a score closer to 0 was determined to be abnormal motor coordination (FIG. 1E, gait test).

[2] = target: T1, hM4D (Gi) expressed in locus coeruleus cells (Homo sapiens, UniProt P08173, A203G/Y113C); assay: Capsaicin-induced pain licking time with chemogenetic inhibition of the axon terminals of locus coeruleus cells in the cerebellum (hM4D (Gi) activated by C21); format: in vivo, mice; conditions: 0.5 μl of 1 mM C21 into cerebellar cortex via cannula (vermis lobule IV/V), hM4D (Gi) in LC, about 10 minutes after, vs control; FIG. 3B
T1 construct: expressed in transfected cells; host or cells: mouse locus coeruleus cells, transduced in vivo by virus; agonist C21 applied at their axon terminals in the cerebellar cortex
T1 sequence (P08173 1-479 Y113C/A203G): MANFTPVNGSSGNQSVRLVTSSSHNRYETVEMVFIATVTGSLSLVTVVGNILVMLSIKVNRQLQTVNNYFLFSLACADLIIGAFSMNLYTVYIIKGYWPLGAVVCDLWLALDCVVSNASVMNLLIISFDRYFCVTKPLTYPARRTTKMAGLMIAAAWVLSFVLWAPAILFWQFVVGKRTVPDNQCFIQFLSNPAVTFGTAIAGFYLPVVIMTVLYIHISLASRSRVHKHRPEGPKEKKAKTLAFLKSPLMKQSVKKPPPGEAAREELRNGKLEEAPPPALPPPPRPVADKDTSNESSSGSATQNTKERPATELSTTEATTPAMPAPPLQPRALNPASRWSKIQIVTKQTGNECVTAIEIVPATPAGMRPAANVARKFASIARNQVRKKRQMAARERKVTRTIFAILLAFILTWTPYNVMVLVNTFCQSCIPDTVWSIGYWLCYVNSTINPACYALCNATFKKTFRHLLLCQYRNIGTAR
Experimental: (§1) 1-2. Drug Injection For chemogenetic inhibition of cerebellar glial cells, CNO was injected intraperitoneally at a dose of 5 to 10 mg/kg. For chemogenetic inhibition of locus coeruleus cells, 0.5 μl of 1 mM C21 was directly injected into the cerebellar cortex through a cannula installed in cerebellar vermis lobule IV/V. Prazosin (100 μM, 0.5 μl) and muscimol (100 μM, 0.5 μl), which are alpha-1 adrenergic receptor inhibitors or GABAA agonists, were injected through cannulas targeting the cerebellar cortex and cerebellar nuclei, respectively.
(§2) To confirm the pain pattern caused by capsaicin, the degree of pain was recorded for a total of 30 minutes, 10 minutes before the injection of capsaicin and 20 minutes after the injection of capsaicin (FIG. 1B).
Using non-genetically modified wild-type mice, a specific chemogenetic inhibitory virus which targets locus coeruleus cells was injected. […] Further, in this case, to confirm that the inhibition of the axon terminals of the locus coeruleus only affected the pain pattern, basic motor function was measured using the ledge test and gait test described above in Example 1-3. […]

[3] = target: T2, hM4D (Gi) expressed in cerebellar glial cells (vermis lobule IV/V) (Homo sapiens, UniProt P08173, A203G/Y113C); assay: Capsaicin-induced pain licking time with chemogenetic inhibition of cerebellar glial cells (hM4D (Gi) activated by CNO); format: in vivo, mice; conditions: CNO intraperitoneal 5 to 10 mg/kg, about 1 hour after, vs control, FIG. 2B
T2 construct: expressed in transfected cells; host or cells: mouse cerebellar glial cells (vermis lobule IV/V), transduced in vivo by virus
T2 sequence (P08173 1-479 Y113C/A203G): T1 sequence (P08173 1-479 Y113C/A203G)
Experimental: Using non-genetically modified wild-type mice, a specific chemogenetic inhibitory virus which targets cerebellar glial cells was injected. […] Therefore, CNO, an agonist capable of activating the corresponding virus, was injected intraperitoneally at a dose of 5 to 10 mg/kg. Behavioral experiments were performed about 1 hour after glial cells were inhibited (FIG. 2A).

GABAA receptor = assay: Capsaicin-induced pain licking time after local injection of muscimol into the deep cerebellar nuclei; format: in vivo, mice; conditions: muscimol 100 μM, 0.5 μl, local into deep cerebellar nuclei (DCN) via cannula, 10 minutes after, vs control; FIG. 6B
Experimental: as §1, §2
Information processed in the cerebellar cortex converges to the cerebellar nuclei. To investigate the pain pattern induced by capsaicin when the cerebellar nuclei, the target of cerebellar output, were inhibited, the deep cerebellar nuclei (DCN) region was locally administered muscimol (100 μM, 0.5 μl), an inhibitory neurotransmitter GABAA receptor agonist, through a cannula. The licking time was measured 10 minutes after the injection when the effect of muscimol appeared (FIG. 6A).

[4] = system: alpha-1 adrenergic receptors in cerebellar glial cells; assay: Capsaicin-induced pain licking time after local injection of prazosin into the cerebellum; format: in vivo, mice; conditions: prazosin 100 μM, 0.5 μl, local into cerebellum (vermis lobule IV/V) via cannula, about 10 minutes after, vs control; FIG. 4B
Experimental: as §1, §2
Alpha-1 adrenergic receptors in cerebellar glial cells are activated by norepinephrine. To inhibit this, prazosin (100 μM, 0.5 μl), an alpha-1 adrenergic receptor antagonist, was locally injected only into the cerebellum (vermis lobule IV/V) via a cannula. Thereafter, behavioral experiments were performed about 10 minutes after the alpha-1 adrenergic receptors were inhibited (FIG. 4A).

[5] = system: cerebellar glial cell-specific alpha-1 adrenergic receptors; assay: Capsaicin-induced pain licking time after knockdown with cerebellar glial cell-specific shRNA; format: in vivo; conditions: Cre-dependent shRNA virus in Glast-Cre/ERT mice after tamoxifen, vs control; FIG. 5B
Experimental: Using non-genetically modified wild-type mice, a specific chemogenetic inhibitory virus which targets cerebellar glial cells and locus coeruleus cells was injected. To specifically remove alpha1-adrenergic receptors from cerebellar glial cells, using Glast-Cre (Tg(Slcla3-Cre/ERT) 1Nat/J), a genetically modified mouse in which Cre is expressed by tamoxifen specifically in only cerebellar glial cells, Cre was expressed by injecting tamoxifen, and then a virus that removes the alpha1-adrenergic receptor in a Cre-dependent manner was injected.
as §2
As another approach to prevent the activity of cerebellar glial cells, alpha-1 adrenergic receptors were inhibited using cerebellar glial cell-specific shRNA. To specifically remove alpha1-adrenergic receptors from cerebellar glial cells, using Glast-Cre (Tg(Slcla3-Cre/ERT) 1Nat/J), a genetically modified mouse in which Cre is expressed by tamoxifen specifically in only cerebellar glial cells, Cre was expressed by injecting tamoxifen, and then a virus that removes the alpha1-adrenergic receptor in a Cre-dependent manner was injected. Glast-cre (Tg(Slcla3-cre/ERT) 1 Nat/J) mice were purchased from Jackson Labs, USA. […]

## Cl.Cl.c1ccc2c(c1)N=C(N1CCNCC1)c1ccccc1N2 [C21, DREADD agonist 21(Compound 21)]
[1]; 0.5 μl of 1 mM C21 into cerebellar cortex, hM4D (Gi) in LC, FIG. 3C
  basic motor performance (ledge test and gait test): no significance difference
[2]
  licking time (pain induced by capsaicin): significantly reduced

## C[N+]1([O-])CCN(C2=Nc3cc(Cl)ccc3Nc3ccccc32)CC1.Cl.Cl [CNO, Clozapine N-oxide (CNO) dihydrochloride]
[3]
  licking time (pain induced by capsaicin): significantly reduced

## NCc1cc(=O)[nH]o1 [muscimol, Muscimol]
[1]; muscimol 100 μM, 0.5 μl, local into DCN, FIG. 6C
  basic motor performance (ledge test and gait test): no significance difference
GABAA receptor
  licking time (pain induced by capsaicin): significantly reduced

## COc1cc2nc(N3CCN(C(=O)c4ccco4)CC3)nc(N)c2cc1OC [prazosin, Prazosin hydrochloride]
[1]; prazosin 100 μM, 0.5 μl, local into cerebellum, FIG. 4C
  basic motor performance (ledge test and gait test): no significance difference
[4]
  licking time (pain induced by capsaicin): significantly reduced

## shRNA: Cre-dependent cerebellar glial cell-specific shRNA (534-558) against alpha-1 adrenergic receptor, GAGCCACACTTAGCTAACCATTTCA (guide GAGCCACACUUAGCUAACCAUUUCA)
[5]
  licking time (pain induced by capsaicin): significantly reduced
